Laboratory results as given in patent publication US11591634B1, “Forecasting bacterial survival-success and adaptive evolution through multiomics stress-response mapping and machine learning” (priority 2019, dated 2023).
≈ marks a conversion by molar mass, not a printed value.

Experiments:
Assay type in all cases: cell-based, Streptococcus pneumoniae
[1] = test system: S. pneumoniae strain TIGR4 (T4); test: Determination of relative minimal inhibitory concentration (MIC); settings: lowest concentration that abolishes bacterial growth, 16 hours, 37° C.; for MIC: Streptococcus pneumoniae, read-out: 1x MIC for T4
Description: (§1) Each concentration was tested in triplicate. Growth was monitored on a Tecan Infinite 200 PRO plate reader at 37° C. for 16 hours. MIC is determined as the lowest concentration that abolishes bacterial growth (FIGS. 6A-6H).

S. pneumoniae T4 = test: Fitness outcome under antibiotic exposure (growth curve assay); settings: for Fitness: S. pneumoniae T4 wild-type, 1xMIC antibiotic, growth curves; for Survive (real survival outcome): strain T4, Adapted FALSE
Description: (§2) To test whether a gene-panel model can be trained that predicts fitness for many different conditions, a large RNA-Seq dataset was generated for the human pathogen Streptococcus pneumoniae. […] These include cell wall synthesis inhibitors (CWSI), DNA synthesis inhibitors (DSI), protein synthesis inhibitors (PSI) and RNA synthesis inhibitors ((RSI); FIG. 1A, Tables 1 & 2). Each strain was exposed to each antibiotic for 2 to 4 hours and cells were harvested for RNA-Seq at various time points. As T4 and 19F are susceptible to most antibiotics used, the transcriptional profiles in the presence of antibiotics mostly represent cases of low fitness (FIG. 1A, sensitive strain, 1xMICWT). In order to find patterns that differentiate fitness outcomes, adapted strains were generated with increased fitness in the presence of antibiotics by serial passaging wildtype T4 and 19F in the presence of increasing amounts of antibiotics. Four independent adapted populations for each strain were selected on individual antibiotics. These adapted strains could grow in the presence of antibiotic at 1.5xMIC of the wildtype strain, albeit with a small growth defect (FIGS. 6A-6E & 6F). In parallel, RNA-Seq was performed on S. pneumoniae strains D39 and T4 in a chemically defined medium, and media from which either uracil, Glycine or L-Valine was removed, which are essential for D39 but not T4. This enabled the potential identification of a common stress signature that is shared between antibiotic exposure and nutrient deprivation, and across multiple strains. Lastly, D39 was adapted to grow in the absence of each individual nutrient, after which RNA-Seq was repeated for adapted clones (Table 1 lists all 24 strains, 67 populations and 267 RNA-Seq experiments).
(§3) S. pneumoniae strain TIGR4 (T4; NC_003028.3) is a serotype 4 strain originally isolated from a patient^3,4, Taiwan-19F (19F; NC_012469.1) is a multi-drug resistant strain^5,6 and D39 (NC_008533) is a commonly used serotype 2 strain originally isolated from a patient about 90 years ago^7. Strain PG1 and PG19 were isolated from adults with pneumococcal bacteremia infection and included in the Pneumococcal Bacteremia Collection Nijmegen (PBCN)^8. All S. pneumoniae gene numbers refer to the T4 genome. Correspondence between homologous genes among S. pneumoniae strains and gene function annotations are described herewith. Escherichia coli strain AR538, Klebsiella pneumoniae strain AR497 and Salmonella enterica subsp Typhimurium strain AR635 were clinical isolates obtained from the Center of Disease Control (CDC). Staphylococcus aureus strain MN6 was kindly provided by George Sakoulas (Center of Immunity, Infection & Inflammation, UCSD School of Medicine). Unless otherwise specified, S. pneumoniae strains were cultivated in Todd Hewitt medium with 5% yeast extract (THY) with 5 μL/mL oxyrase (Oxyrase, Inc) or on sheep's blood agar plates (Northeastern Laboratories) at 37° C. with 5% CO2. A. baumannii, E. coll. K. pneumoniae, S. aureus and S. Typhimurium were cultured in Mueller Hinton broth II (Sigma) at 37° C. with 220 rpm constant shaking. Tn-Seq and RNA-Seq experiments of S. pneumoniae under nutrient-depletion and antibiotic conditions were performed in chemically defined medium (CDM)^9 and semi-defined minimal medium (SDMM)^10, respectively. RNA-Seq experiments for A. baumannii, S. Typhimurium, E. coll. K. pneumoniae, and S. aureus were performed in Mueller Hinton broth II. Single strain growth assays were performed at least three times using 96-well plates by taking OD600 measurements on a Tecan Infinite 200 PRO plate reader.

[2] = test system: S. pneumoniae strain Taiwan-19F (19F); test: Determination of relative minimal inhibitory concentration (MIC); settings: for MIC: Streptococcus pneumoniae, 16 h, read-out: 1x MIC for 19F
Description: as §1

S. pneumoniae 19F = test: Fitness outcome under antibiotic exposure (growth curve assay); settings: for Fitness: S. pneumoniae 19F wild-type, growth curves; for Survive (real survival outcome): strain 19F, Adapted FALSE
Description: as §2, §3

[3] = test system: antibiotic-adapted S. pneumoniae 19F (a19F); test: as above; settings: for Fitness: a19F, 19F adapted to the respective antibiotic, 1xMIC and 1.5-2xMIC, growth curves; for Survive (real survival outcome): strain 19F, Adapted TRUE
Description: as §2, §3
(§4) D39 was used as the parental strain in nutrient-depletion evolution experiments; T4 and 19F were used as parental strains in antibiotic evolution experiments. […] Four replicate populations were serial passaged in CDM or SDMM as controls to identify background adaptations in nutrient or antibiotic adaptation experiments, respectively. […]

[4] = test system: antibiotic-adapted S. pneumoniae T4 (aT4); test: as above; settings: for Survive (real survival outcome): strain T4, Adapted TRUE
Description: as §2, §3, §4

S. pneumoniae strain D39 = test: Real survival outcome (fitness outcome) under nutrient condition; settings: strain D39, Adapted FALSE, Concentration NA
[5] = test system: adapted S. pneumoniae strain D39; test: Real survival outcome (fitness outcome) under nutrient condition, adapted strain; settings: strain D39, Adapted TRUE, Concentration NA

Compound | MIC [1] [µg/mL] | Fitness (S. pneumoniae T4) | Survive (real survival outcome) (S. pneumoniae T4; Concentration NA) | MIC [2] [µg/mL] | further results
NC[C@H]1O[C@H](O[C@H]2[C@H](O)[C@@H](O[C@H]3O[C@H](CO)[C@@H](O)[C@H](N)[C@H]3O)[C@H](N)C[C@@H]2N)[C@H](N)C[C@@H]1O [Tobramycin, tobramycin] | 175 (≈ 374 µM) | Low | FALSE | – | –
penicillin | – | Low | – | – | 1x MIC for T4 [1]: 0.03 µg/mL; 1x MIC for 19F ([2]; S. pneumoniae 19F, lowest concentration that abolishes bacterial growth, 16 hours, 37° C.): 2.25 µg/mL; Fitness (S. pneumoniae 19F): High; Survive (real survival outcome) (S. pneumoniae 19F; Concentration L (low)): TRUE; Survive (real survival outcome) (S. pneumoniae T4; Concentration L (low)): FALSE; Fitness [3]: High; Survive (real survival outcome) ([4]; Concentration H (high)): TRUE; Survive (real survival outcome) ([4]; Concentration L (low)): TRUE
CO/N=C(\C(=O)N[C@@H]1C(=O)N2C(C(=O)[O-])=C(C[N+]3(C)CCCC3)CS[C@H]12)c1csc(N)n1 [Cefepime, cefepime] | 0.8 (≈ 1.66 µM) | Low | – | 2.2 (≈ 4.58 µM) | Fitness (S. pneumoniae 19F): Low, and High; Survive (real survival outcome) (S. pneumoniae 19F; Concentration H (high)): FALSE; Survive (real survival outcome) (S. pneumoniae 19F; Concentration L (low)): TRUE; Survive (real survival outcome) (S. pneumoniae T4; Concentration L (low)): FALSE
CC(C)[C@H](N)C(=O)O [VAL] | – | – | TRUE | – | Survive (real survival outcome) (S. pneumoniae strain D39): FALSE; Survive (real survival outcome) [5]: TRUE
CO/N=C(\C(=O)N[C@@H]1C(=O)N2C(C(=O)O)=C(CSc3nc(=O)c(=O)[nH]n3C)CS[C@H]12)c1csc(N)n1 [Ceftriaxone, ceftriaxone] | 0.007 (≈ 0.0126 µM) | Low | FALSE | – | –
COc1c(N2C[C@@H]3CCCN[C@@H]3C2)c(F)cc2c(=O)c(C(=O)O)cn(C3CC3)c12 [Moxifloxacin, moxifloxacin] | 0.45 (≈ 1.12 µM) | – | – | – | –
C[C@H]1COc2c(N3CCN(C)CC3)c(F)cc3c(=O)c(C(=O)O)cn1c23 [Levofloxacin, levofloxacin] | 1 (≈ 2.77 µM) | – | – | 1.1 (≈ 3.04 µM) | –
NC[C@H]1O[C@H](O[C@H]2[C@H](O)[C@@H](O[C@H]3O[C@H](CO)[C@@H](O)[C@H](N)[C@H]3O)[C@H](N)C[C@@H]2N)[C@H](O)[C@@H](O)[C@@H]1O [Kanamycin, kanamycin] | 90 (≈ 186 µM) | – | – | 90 (≈ 186 µM) | –
NCC(=O)O [GLY] | – | – | TRUE | – | Survive (real survival outcome) (S. pneumoniae strain D39): FALSE
CC1(C)S[C@@H]2[C@H](NC(=O)[C@H](N)c3ccc(O)cc3)C(=O)N2[C@H]1C(=O)O [Amoxicillin, amoxicillin] | 0.12 (≈ 0.328 µM) | Low | FALSE | – | –
CN[C@H](CC(C)C)C(=O)N[C@H]1C(=O)N[C@@H](CC(N)=O)C(=O)N[C@H]2C(=O)N[C@H]3C(=O)N[C@H](C(=O)N[C@H](C(=O)O)c4cc(O)cc(O)c4-c4cc3ccc4O)[C@H](O)c3ccc(c(Cl)c3)Oc3cc2cc(c3O[C@@H]2O[C@H](CO)[C@@H](O)[C@H](O)[C@H]2O[C@H]2C[C@](C)(N)[C@H](O)[C@H](C)O2)Oc2ccc(cc2Cl)[C@H]1O [Vancomycin, vancomycin] | 0.24 (≈ 0.166 µM) | Low | – | 0.24 (≈ 0.166 µM) | Fitness (S. pneumoniae 19F): Low; Survive (real survival outcome) (S. pneumoniae 19F; Concentration L (low)): FALSE; Survive (real survival outcome) (S. pneumoniae T4; Concentration L (low)): FALSE; Fitness [3]: High; Survive (real survival outcome) ([3]; Concentration H (high)): TRUE; Survive (real survival outcome) ([3]; Concentration L (low)): TRUE; Fitness ([4]; aT4, T4 adapted to the respective antibiotic, 1xMIC and 1.5-2xMIC, growth curves): High; Survive (real survival outcome) ([4]; Concentration H (high)): TRUE; Survive (real survival outcome) ([4]; Concentration L (low)): TRUE
CO[C@H]1/C=C/O[C@@]2(C)Oc3c(C)c(O)c4c(O)c(c(/C=N/N5CCN(C)CC5)c(O)c4c3C2=O)NC(=O)/C(C)=C\C=C\[C@H](C)[C@H](O)[C@@H](C)[C@@H](O)[C@@H](C)[C@H](OC(C)=O)[C@@H]1C [Rifampicin, rifampicin] | 0.035 (≈ 0.0425 µM) | – | – | 0.035 (≈ 0.0425 µM) | –
cotrimoxazole | – | Low | FALSE | – | 1x MIC for T4 [1]: 6.5 µg/mL
CN(C)[C@@H]1C(O)=C(C(N)=O)C(=O)[C@@]2(O)C(O)=C3C(=O)c4c(O)cccc4[C@@](C)(O)[C@H]3C[C@@H]12 [Tetracycline, tetracycline] | 8 (≈ 18 µM) | – | – | 22 (≈ 49.5 µM) | –
CC(=O)NC[C@H]1CN(c2ccc(N3CCOCC3)c(F)c2)C(=O)O1 [Linezolid, linezolid] | 0.5 (≈ 1.48 µM) | Low | FALSE | – | –
CCCCCCCCCC(=O)N[C@@H](Cc1c[nH]c2ccccc12)C(=O)N[C@H](CC(N)=O)C(=O)N[C@@H](CC(=O)O)C(=O)N[C@@H]1C(=O)NCC(=O)N[C@@H](CCCN)C(=O)N[C@@H](CC(=O)O)C(=O)N[C@H](C)C(=O)N[C@@H](CC(=O)O)C(=O)NCC(=O)N[C@H](CO)C(=O)N[C@@H]([C@H](C)CC(=O)O)C(=O)N[C@@H](CC(=O)c2ccccc2N)C(=O)O[C@@H]1C [Daptomycin, daptomycin] | 35 (≈ 21.6 µM) | Low | – | 35 (≈ 21.6 µM) | Fitness (S. pneumoniae 19F): Low; Survive (real survival outcome) (S. pneumoniae 19F; Concentration L (low)): FALSE; Survive (real survival outcome) (S. pneumoniae T4; Concentration L (low)): FALSE
O=c1cc[nH]c(=O)[nH]1 [URA] | – | – | TRUE | – | Survive (real survival outcome) (S. pneumoniae strain D39): FALSE; Survive (real survival outcome) [5]: TRUE
C[C@@H](O)[C@H]1C(=O)N2C(C(=O)O)=C(SCCN=CN)C[C@H]12 [Imipenem, imipenem] | 0.03 (≈ 0.1 µM) | – | – | – | –
